Laboratory results published in PubChem BioAssay (NCI).
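These data come from cells grown in 96-well plates and exposed to compound for 48 hours at five concentrations. TGI denotes the concentration required for complete inhibition of growth.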

Tests used:
Assay in all cases: inhibition of tumour cell growth, NCI panel, 48 h
A498 renal = test system: A498 renal
ACHN renal = test system: ACHN renal
BT-549 breast = test system: BT-549 breast
CAKI-1 renal = test system: CAKI-1 renal
COLO 205 colon = test system: COLO 205 colon
DMS 114 small cell lung = test system: DMS 114 small cell lung
DMS 273 small cell lung = test system: DMS 273 small cell lung
DU-145 prostate = test system: DU-145 prostate
EKVX NSCLC = test system: EKVX NSCLC
HCC-2998 colon = test system: HCC-2998 colon
HCT-116 colon = test system: HCT-116 colon
HCT-15 colon = test system: HCT-15 colon
HL-60(TB) leukemia = test system: HL-60(TB) leukemia
HOP-18 NSCLC = test system: HOP-18 NSCLC
HOP-62 NSCLC = test system: HOP-62 NSCLC
HOP-92 NSCLC = test system: HOP-92 NSCLC
HS 578T breast = test system: HS 578T breast
HT29 colon = test system: HT29 colon
IGROV1 ovarian = test system: IGROV1 ovarian
K-562 leukemia = test system: K-562 leukemia
KM12 colon = test system: KM12 colon
KM20L2 colon = test system: KM20L2 colon
LOX IMVI melanoma = test system: LOX IMVI melanoma
LXFL 529 NSCLC = test system: LXFL 529 NSCLC
M14 melanoma = test system: M14 melanoma
M19-MEL melanoma = test system: M19-MEL melanoma
MALME-3M melanoma = test system: MALME-3M melanoma
MDA-MB-231 breast = test system: MDA-MB-231 breast
MDA-MB-435 = test system: MDA-MB-435
MDA-N = test system: MDA-N
MOLT-4 leukemia = test system: MOLT-4 leukemia
NCI-H226 lung = test system: NCI-H226 lung
NCI-H23 lung = test system: NCI-H23 lung
NCI-H460 lung = test system: NCI-H460 lung
NCI-H522 lung = test system: NCI-H522 lung
OVCAR-3 ovarian = test system: OVCAR-3 ovarian
OVCAR-4 ovarian = test system: OVCAR-4 ovarian
OVCAR-5 ovarian = test system: OVCAR-5 ovarian
OVCAR-8 ovarian = test system: OVCAR-8 ovarian
PC-3 prostate = test system: PC-3 prostate
RPMI-8226 leukemia = test system: RPMI-8226 leukemia
RXF 393 renal = test system: RXF 393 renal
RXF-631 renal = test system: RXF-631 renal
SF-268 CNS = test system: SF-268 CNS
SF-295 CNS = test system: SF-295 CNS
SF-539 CNS = test system: SF-539 CNS
SK-MEL-28 melanoma = test system: SK-MEL-28 melanoma
SK-MEL-5 melanoma = test system: SK-MEL-5 melanoma
SK-OV-3 ovarian = test system: SK-OV-3 ovarian
SN12C renal = test system: SN12C renal
SNB-19 CNS = test system: SNB-19 CNS
SNB-75 CNS = test system: SNB-75 CNS
SNB-78 CNS = test system: SNB-78 CNS
SW-620 colon = test system: SW-620 colon
T-47D breast = test system: T-47D breast
U251 CNS = test system: U251 CNS
UACC-257 melanoma = test system: UACC-257 melanoma
UACC-62 melanoma = test system: UACC-62 melanoma
UO-31 renal = test system: UO-31 renal
XF 498 CNS = test system: XF 498 CNS
786-0 renal = test system: 786-0 renal
A549 NSCLC = test system: A549 NSCLC
DLD-1 colon = test system: DLD-1 colon
SR leukemia = test system: SR leukemia
TK-10 renal = test system: TK-10 renal
CCRF-CEM leukemia = test system: CCRF-CEM leukemia
SK-MEL-2 melanoma = test system: SK-MEL-2 melanoma

Measured: TGI

CC1OC(OC2CC(O)(C(=O)CO)Cc3c(O)c4c(c(O)c32)C(=O)c2ccccc2C4=O)CC(N)C1O (centres undefined)
1.49 µM: MDA-MB-435
3.52 µM: IGROV1 ovarian
0.142 µM: SK-OV-3 ovarian
0.0526 µM: A498 renal
0.121 µM: SF-539 CNS
9.2 µM: K-562 leukemia
0.588 µM: XF 498 CNS
0.029 µM: LOX IMVI melanoma
0.954 µM: PC-3 prostate
0.549 µM: SF-268 CNS
0.229 µM: M14 melanoma
0.188 µM: U251 CNS
0.113 µM: HS 578T breast
7.4 µM: MDA-MB-231 breast
0.0523 µM: SK-MEL-5 melanoma
0.0358 µM: HOP-18 NSCLC
1.32 µM: OVCAR-3 ovarian
0.235 µM: RPMI-8226 leukemia
0.613 µM: MDA-N
12.4 µM: OVCAR-8 ovarian
1.04 µM: HOP-92 NSCLC
0.407 µM: HCT-116 colon
1.99 µM: HCT-15 colon
0.267 µM: UO-31 renal
0.326 µM: UACC-257 melanoma
0.347 µM: LXFL 529 NSCLC
2.48 µM: SW-620 colon
0.15 µM: M19-MEL melanoma
0.107 µM: SNB-75 CNS
0.239 µM: SNB-19 CNS
0.0818 µM: SF-295 CNS
0.898 µM: SNB-78 CNS
0.139 µM: COLO 205 colon
0.0782 µM: HOP-62 NSCLC
0.887 µM: SN12C renal
0.779 µM: KM20L2 colon
< 0.0278 µM: DMS 273 small cell lung
4.03 µM: BT-549 breast
0.134 µM: ACHN renal | T-47D breast
4.59 µM: KM12 colon
< 0.0173 µM: HL-60(TB) leukemia
0.0864 µM: MALME-3M melanoma
3.15 µM: OVCAR-4 ovarian
0.721 µM: OVCAR-5 ovarian
0.203 µM: NCI-H23 lung
< 0.0228 µM: NCI-H226 lung
< 0.0819 µM: MOLT-4 leukemia
0.213 µM: RXF-631 renal
0.1 µM: NCI-H522 lung
0.084 µM: HCC-2998 colon
0.088 µM: CAKI-1 renal
0.368 µM: SK-MEL-28 melanoma
0.109 µM: UACC-62 melanoma
0.152 µM: RXF 393 renal
0.0366 µM: NCI-H460 lung
0.0836 µM: DU-145 prostate
0.0412 µM: DMS 114 small cell lung
1.82 µM: EKVX NSCLC
0.493 µM: HT29 colon

CN(C)/C(N)=N/C(N)=S
not listed: BT-549 breast | DU-145 prostate | HS 578T breast | MDA-MB-231 breast | MDA-MB-435 | MDA-N | PC-3 prostate | SK-MEL-5 melanoma | T-47D breast | CCRF-CEM leukemia | SK-MEL-2 melanoma
> 100 µM: all other assays above

COC(=O)NN1C(C)=C(C(=O)OC)C2(CCOC2=O)C1(C)O (centres undefined)
not listed: BT-549 breast | DU-145 prostate | HS 578T breast | M19-MEL melanoma | MDA-MB-231 breast | MDA-MB-435 | MDA-N | PC-3 prostate | RXF 393 renal | SK-MEL-5 melanoma | SNB-75 CNS | T-47D breast | SR leukemia
> 100 µM: all other assays above

BrC12c3ccccc3Sc3ccccc3C1(Br)c1ccccc12 (centres undefined)
50.1 µM: CCRF-CEM leukemia
44.6 µM: NCI-H522 lung
59.7 µM: LXFL 529 NSCLC
52.1 µM: HCT-116 colon
95.8 µM: SNB-75 CNS
64.8 µM: DMS 114 small cell lung
86.2 µM: OVCAR-5 ovarian
98.8 µM: RXF-631 renal
42.9 µM: HOP-62 NSCLC
34.6 µM: SF-539 CNS
87.2 µM: DMS 273 small cell lung
86.3 µM: UACC-257 melanoma
35.8 µM: MOLT-4 leukemia
76.6 µM: SN12C renal
33.7 µM: U251 CNS
38.7 µM: NCI-H226 lung
76.3 µM: COLO 205 colon
28.8 µM: M14 melanoma
70.7 µM: A498 renal
29.1 µM: HL-60(TB) leukemia
41.6 µM: KM20L2 colon
60.5 µM: HOP-92 NSCLC
41.4 µM: SR leukemia
46.3 µM: HCT-15 colon
38.9 µM: KM12 colon
34.5 µM: SK-MEL-2 melanoma
30.8 µM: SK-MEL-5 melanoma
61.4 µM: SF-295 CNS
72.9 µM: CAKI-1 renal
29.7 µM: LOX IMVI melanoma
46.6 µM: UACC-62 melanoma
36.4 µM: RPMI-8226 leukemia
99.6 µM: TK-10 renal
not listed: BT-549 breast | DU-145 prostate | EKVX NSCLC | HS 578T breast | MDA-MB-231 breast | MDA-MB-435 | MDA-N | NCI-H23 lung | OVCAR-3 ovarian | PC-3 prostate | SK-MEL-28 melanoma | SNB-78 CNS | T-47D breast | XF 498 CNS
> 100 µM: all other assays above

c1ccc(C2N3CCCCC3[C@@H]3c4[nH]c5ccccc5c4CCN23)cc1 (some centres undefined)
33.5 µM: HT29 colon
48.8 µM: HL-60(TB) leukemia
63.6 µM: A498 renal
48.2 µM: COLO 205 colon
75.6 µM: OVCAR-4 ovarian
70.2 µM: SK-MEL-28 melanoma
not listed: BT-549 breast | DU-145 prostate | HS 578T breast | KM12 colon | LOX IMVI melanoma | MDA-MB-231 breast | MDA-MB-435 | MDA-N | NCI-H226 lung | NCI-H522 lung | PC-3 prostate | RXF-631 renal | T-47D breast | SR leukemia
> 100 µM: all other assays above

COc1ccc(/C(C)=N/NC(N)=S)c(OC)c1
62.3 µM: NCI-H522 lung
not listed: BT-549 breast | DMS 273 small cell lung | DU-145 prostate | HS 578T breast | MDA-MB-231 breast | MDA-MB-435 | MDA-N | OVCAR-4 ovarian | PC-3 prostate | T-47D breast
> 100 µM: all other assays above

N#CC1=C(c2ccccc2)C(O)(c2ccccc2)NC1=O (centres undefined)
74 µM: MALME-3M melanoma
63.3 µM: SF-539 CNS
75.2 µM: HOP-92 NSCLC
90.1 µM: OVCAR-5 ovarian
88.9 µM: SK-OV-3 ovarian
60.6 µM: A498 renal
not listed: BT-549 breast | DU-145 prostate | HS 578T breast | MDA-MB-231 breast | MDA-MB-435 | MDA-N | NCI-H522 lung | PC-3 prostate | SNB-19 CNS | SNB-78 CNS | T-47D breast
> 100 µM: all other assays above
